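96-well plates; 48 h exposure; 5 concentrations. Endpoints by linear interpolation between flanking doses. Not reached: highest tested concentration assigned. GI50 = concentration required for 50% inhibition of growth.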 Activity calls are given as the source filed them. Cut-off read from the data, not from the text of the source: active = GI50 up to about 1.1 µM and inactive = higher.
How the values were obtained:
Assay in all cases: DTP human tumour cell line panel, 48 h
[1] = test system: SW-620
[2] = test system: NCI-H226
[3] = test system: SF-295
[4] = test system: RXF 393
[5] = test system: OVCAR-8
[6] = test system: SK-MEL-28
[7] = test system: T47D
[8] = test system: SK-OV-3
[9] = test system: A498
[10] = test system: MCF7
[11] = test system: SN12C
[12] = test system: OVCAR-5
[13] = test system: OVCAR-3
[14] = test system: PC-3
[15] = test system: RPMI-8226
[16] = test system: IGROV-1
[17] = test system: NCI-H23
[18] = test system: K562
[19] = test system: 786-0
[20] = test system: Malme-3M

Row | SMILES | GI50 [1] | GI50 [2] | GI50 [3] | GI50 [4] | GI50 [5] | GI50 [6] | GI50 [7] | GI50 [8] | GI50 [9] | GI50 [10] | GI50 [11] | GI50 [12] | GI50 [13] | GI50 [14] | GI50 [15] | GI50 [16] | GI50 [17] | GI50 [18] | GI50 [19] | GI50 [20]
1 | C=CC(C)(C)n1cc(C2=C(O)C(=O)C(c3cn(C(C)(C)C=C)c4ccccc34)=C(OC(C)=O)C2=O)c2ccccc21 | 1.53 µM (inactive) | 1.36 µM (inactive) | 0.571 µM (active) | 0.929 µM (active) | 0.632 µM (active) | 1.21 µM (inactive) | 1.68 µM (inactive) | 1.49 µM (inactive) | 0.853 µM (active) | 0.0715 µM (active) | 0.456 µM (active) | 1.66 µM (inactive) | 1.04 µM (active) | 0.75 µM (active) | 0.984 µM (active) | 0.435 µM (active) | 0.692 µM (active) | 0.424 µM (active) | 1.47 µM (inactive) | 1.46 µM (inactive)
2 | [O-][n+]1onc2c1-c1nonc1CC2 | 45.1 µM (inactive) | 36.8 µM (inactive) | > 100 µM (inactive) | 36.1 µM (inactive) | 46 µM (inactive) | 55.2 µM (inactive) | 83 µM (inactive) | 47.9 µM (inactive) | 31.7 µM (inactive) | 28.5 µM (inactive) | 37.5 µM (inactive) | 50.8 µM (inactive) | 10.6 µM (inactive) | 26.5 µM (inactive) | > 100 µM (inactive) | 38.8 µM (inactive) | 23.8 µM (inactive) | 56 µM (inactive) | 43.7 µM (inactive) | 11.9 µM (inactive)
3 | C=CC(=O)c1ccc2c(c1)OCCOCCOCCOCCOCCO2 | 18.8 µM (inactive) | > 100 µM (inactive) | > 100 µM (inactive) | 17.2 µM (inactive) | 20 µM (inactive) | 18.7 µM (inactive) | 29.3 µM (inactive) | > 100 µM (inactive) | > 100 µM (inactive) | 16 µM (inactive) | 23.8 µM (inactive) | 33.4 µM (inactive) | 19.7 µM (inactive) | 30.9 µM (inactive) | > 38.8 µM (inactive) | > 100 µM (inactive) | > 44.4 µM (inactive) | 35.6 µM (inactive) | 16.1 µM (inactive) | 18.5 µM (inactive)
4 | COc1cccc(C2c3cc4c(cc3OC(N3CCCC3)C2C)OCO4)c1O (stereo not given) | 3.74 µM (inactive) | 4.53 µM (inactive) | 3.51 µM (inactive) | 3.58 µM (inactive) | 7.55 µM (inactive) | 6.5 µM (inactive) | 9.95 µM (inactive) | 4.36 µM (inactive) | 4.89 µM (inactive) | 6.68 µM (inactive) | 4.84 µM (inactive) | 11.3 µM (inactive) | 2.77 µM (inactive) | 4.49 µM (inactive) | 4.23 µM (inactive) | 7.14 µM (inactive) | 4.08 µM (inactive) | 3.74 µM (inactive) | 4.89 µM (inactive) | 6.17 µM (inactive)
5 | Clc1cc(OCc2nn3c(Cc4ccccc4)nnc3s2)c(Cl)cc1OCc1nn2c(Cc3ccccc3)nnc2s1 | > 100 µM (inactive) | > 100 µM (inactive) | 31.3 µM (inactive) | 17 µM (inactive) | 28.6 µM (inactive) | > 100 µM (inactive) | 22.1 µM (inactive) | 25.8 µM (inactive) | 30.5 µM (inactive) | > 100 µM (inactive) | > 100 µM (inactive) | > 100 µM (inactive) | 33.3 µM (inactive) | 78.3 µM (inactive) | 8.89 µM (inactive) | 36 µM (inactive) | 23.9 µM (inactive) | 4.93 µM (inactive) | 33.7 µM (inactive) | > 100 µM (inactive)
6 | COC(=O)c1ccc(NCc2cc(O)c3ccccc3c2O)cc1 | 12.9 µM (inactive) | 16.4 µM (inactive) | 7.5 µM (inactive) | 16.3 µM (inactive) | 24.4 µM (inactive) | 5.65 µM (inactive) | 5.12 µM (inactive) | 16.8 µM (inactive) | 19.8 µM (inactive) | 3.68 µM (inactive) | 7.13 µM (inactive) | 21.6 µM (inactive) | 14.9 µM (inactive) | 17.2 µM (inactive) | 3.45 µM (inactive) | 11.4 µM (inactive) | 6.65 µM (inactive) | 2.59 µM (inactive) | 16.1 µM (inactive) | 2.56 µM (inactive)
7 | CCN(CC)Cc1c(/C=C\c2cc(OC)c(OC)c(OC)c2)ccc(OC)c1O | 2.77 µM (inactive) | 3.67 µM (inactive) | 2.03 µM (inactive) | 2.04 µM (inactive) | 4.1 µM (inactive) | 15 µM (inactive) | > 100 µM (inactive) | 2.12 µM (inactive) | 6.22 µM (inactive) | 3.17 µM (inactive) | 5.3 µM (inactive) | 9.48 µM (inactive) | 2.08 µM (inactive) | 1.8 µM (inactive) | 3 µM (inactive) | 4.2 µM (inactive) | 2.97 µM (inactive) | 3.27 µM (inactive) | 3.83 µM (inactive) | 3.23 µM (inactive)

From ChEMBL document CHEMBL1201862, “PubChem BioAssay data set” (2004)
